Measured values reported in article PMC9858427, “Design, synthesis and biological evaluation of 2-((4-sulfamoylphenyl)amino)-pyrrolo[2,3-d]pyrimidine derivatives as CDK inhibitors” (Journal of Enzyme Inhibition and Medicinal Chemistry, 2023).

System: MIA PaCa-2 cells
Assay: MTT proliferation assay in MIA PaCa-2 cells
Type: cell-based, human
Settings: Homo sapiens, MIA PaCa-2, 72 h drug exposure
Procedure: The human pancreatic carcinoma MIA PaCa-2 was purchased from China Centre for Type Culture Collection, AsPC-1 and BxPC-3 cell Lines were purchased from Cell Centre of the Institute of Basic Medical Sciences, Chinese Academy of Medical Sciences and Peking Union Medical College. PANC-1 was kindly provided by Nankai Hospital (Tianjin, China). These cancer cell lines were cultured according to the manufacturer’s instruction.
Then 3-fold diluted concentrations of tested compound were added respectively which was dissolved by DMSO in the ratio of 1:1000. After indicated incubation period, MTT was added to each well and incubated for 4 h at 37 °C. Then, the supernatant was discarded gently, and the precipitate was dissolved in 100 µL of DMSO in each well. The absorbance (A) at 570 nm was detected with a microplate reader (Multiskan MK3; Thermo Fisher Scientific, MA, USA). Vehicle-treated cells were served as the control for the calculation of relative cell viability (%) of treated group at single concentration. IC50 value was calculated directly from the inhibition curve of serial dilution of test compound and was expressed as mean ± SD using the SPSS statistical software (SPSS17.0 Inc., Chicago, IL, USA).

Compound CN(C)C(=O)c1cc2cnc(Nc3ccc(S(N)(=O)=O)cc3)nc2n1C1CCCC1 [compound 2g, 7-Cyclopentyl-N,N-dimethyl-2-((4-sulfamoylphenyl)amino)-7H-pyrrolo[2,3-d]pyrimidine-6-carboxamide] has an IC50 of 0.52 ± 0.67 µM.
